Reference: PubChem BioAssay (NCI)
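Growth conditions: 96-well plates. Treatment: test compound, 48 hours, 5 concentrations. Analysis: linear interpolation between bracketing concentrations; unreached endpoints set to highest concentration. GI50 marks 50% less growth. TGI: concentration producing complete growth inhibition.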 Where a SMILES comes first, the peptide text is derived from it. [ ]: non-standard residue; d: D form. The star is where a group is joined. NMeF = CN[C@@H](Cc1ccccc1)C(=O)O; NMeV = CN[C@H](C(=O)O)C(C)C; Boc = CC(C)(C)OC(=O)*; OBn = c1ccc(CO*)cc1

Columns and labels:
Assay in all cases: inhibition of tumour cell growth, NCI panel, 48 h
U251 CNS = system: U251 CNS
HOP-62 NSCLC = system: HOP-62 NSCLC
UO-31 renal = system: UO-31 renal
OVCAR-4 ovarian = system: OVCAR-4 ovarian
HT29 colon = system: HT29 colon
A549 NSCLC = system: A549 NSCLC
MOLT-4 leukemia = system: MOLT-4 leukemia
IGROV1 ovarian = system: IGROV1 ovarian
MALME-3M melanoma = system: MALME-3M melanoma
RPMI-8226 leukemia = system: RPMI-8226 leukemia

SMILES	TGI (U251 CNS) [µM]	TGI (HOP-62 NSCLC) [µM]	TGI (UO-31 renal) [µM]	TGI (OVCAR-4 ovarian) [µM]	TGI (HT29 colon) [µM]	TGI (A549 NSCLC) [µM]	TGI (MOLT-4 leukemia) [µM]	TGI (IGROV1 ovarian) [µM]	TGI (MALME-3M melanoma) [µM]	TGI (RPMI-8226 leukemia) [µM]	GI50 (RPMI-8226 leukemia) [µM]	GI50 (U251 CNS) [µM]	GI50 (HOP-62 NSCLC) [µM]	GI50 (UO-31 renal) [µM]	GI50 (OVCAR-4 ovarian) [µM]	GI50 (HT29 colon) [µM]	GI50 (A549 NSCLC) [µM]	GI50 (MOLT-4 leukemia) [µM]	GI50 (IGROV1 ovarian) [µM]	GI50 (MALME-3M melanoma) [µM]
Cc1ccc(C(=O)C#Cc2c[nH]c(=O)[nH]c2=O)cc1	28.2	87.7	37.7	47.3	49.5	39.8	23.8	31.2	18.7											
CN(C)C1=NC2=S(SC(Nc3ccccc3)=N2)S1 (stereo not drawn)	> 100	67.7	61.1	> 100	> 100	47.2	> 100	> 100	46.5	57.1										
COC(=O)C1=C(c2ccc3c(c2)OCO3)OC(c2ccc3c(c2)OCO3)C1 (stereo not drawn)	> 100	> 100	> 100	> 100	> 100	> 100	> 100	> 100	> 100	> 100										
Cc1cc2cc3cc(C)c(N)cc3[n+](C)c2cc1N	3.17	4.21	11.6	8.78	6	10.9	13.6	15.3	6.86	4.57	0.615	0.339	0.518	2.16	1.52	1.41	1	2.58	2.66	2.38
O=C(O)c1ccccc1-c1ccccc1C(=O)Nc1ccc2c(c1)[nH]c(=O)c1ccccc12	> 100	> 100	> 100	> 100	> 100	> 100	> 100	> 100	> 100	> 100										
COc1cc(/C=C2\C(=O)N(c3ccccc3)c3ccccc32)cc(OC)c1OC	15.3	31.5	31.3	23.7	13.9	40.9	10.8	32	46.4	5.78	2.17	3.87	15	13.7	10.4	3.7	11.3	2.33	6.61	18.5
O=C(NCCNc1nccc(-c2c(-c3ccc(F)cc3)nc3sccn23)n1)c1ccccc1	> 100	34.7	18.5	71.7	> 100	96.7	54.8	24.1		27	5.88	8.57	16.9	1.75	15.1	4.31	4.11	12.2	3.48	
COc1ccccc1C(N)c1ccccc1 (stereo not drawn)	> 100	> 100	> 100	> 100	> 100	> 100	> 100	> 100	> 100	> 100										
Clc1ccc(C2=NN[C@H](c3cn(-c4ccccc4)nc3-c3ccccc3)C2)cc1	11.7	5.76	> 100	34.3	55.8	14.4	> 100	33.2	> 100	> 100	14.1	3.17	2.31	12.8	4.87	5.76	3.37	19.6	6.28	5.66
Cc1ccc(-c2nc(N)c(C#N)c3c2CCOc2c-3ccc3ccccc23)cc1	4.25	7.93	> 100	> 79.5	54.1	22.9	> 100	> 100	7.89	2.26	0.29	0.222	0.313	4.14	16.3	0.387	1.2	0.42	0.359	0.0779
COc1cccc(Cn2c(-c3nonc3NC(C)=O)nc3ccccc32)c1	35.5	> 100	> 100	> 100	> 100	> 100	> 100	> 100	43.8	> 100	5.34	3.94	8.53	3.72	15.6	3.28	5.81	5.63	7.98	3.31
CCCCCCCCCCCCCCCCCC(=O)OCC(COC1OC(CS(=O)(=O)O)C(O)C(O)C1O)OC(=O)CCCCCCCCCCCCCCCCC (stereo not drawn)	> 100	> 100		> 100	> 100	> 100	> 100	> 100	> 100	> 100										
CC(C)[C@@H](C(=O)N1CCC[C@H]1C(=O)OCc1ccccc1)N(C)C(=O)[C@H](C(C)C)N(C)C(=O)[C@H](Cc1ccccc1)N(C)C(=O)[C@H](NC(=O)OC(C)(C)C)C(C)C (Boc-[dV][NMeF][NMeV][NMeV]P-OBn)	> 100	> 100	> 100	> 100	> 100	> 100	> 100	> 100	> 100	> 100	4.6						> 100	3.68		
N#C/C(=C1C=C/C(=N\O)C(Cl)=C\1)c1ccccc1		13	17.1	51.5	10.9	> 100	9.02	23.7	29.9	4.41	0.451		1.91	1.74	12.7	3.35	3.27	2.91	4.26	7.35
N#CCCSC(=S)C1CCCC1=N (stereo not drawn)	> 100	> 100	> 100	> 100	> 100	> 100	> 100	> 100	> 100	> 100										
Cc1cc(C)c2nc3nc(C)cc(C)c3c(N)c2c1	26.1	25.7	16	19.8	13.6	> 100	26.6	28.2	16.6	24.8	4.55	4.3	5.26	2.9	3.63	2.49	4.34	4.7	3.64	4.19
NC(=O)Nc1c([N+](=O)[O-])cc(C(F)(F)F)cc1[N+](=O)[O-]	> 100	> 100	> 100	> 100	> 100	> 100	> 100	> 100		> 100										
O=C(O)c1cccc2cccc(C(=O)O)c12.[Hg]	26.8	35.3	35	32.6	27.2	42.3	42.7	29.2	15			12.2	20.8	20.7	18	13.8	20.4	19.6	15.8	4.04
Cc1sc(NC2=NC(=O)/C(=C\c3ccccc3)S2)nc1-c1nc(NC2=NC(=O)/C(=C\c3ccccc3)S2)sc1C	22.9	22.9	> 44.4		> 50	> 39.6	> 50	> 50		31.6	8.45	9.27	8.71	24.9		23.3	15.5	24.2	23	
Cc1ccc(NC2=C(Cl)C(=O)N(Cc3ccccc3)C2=O)cc1Cl	15.9	25.2	15.9	26.6	36.6	18.8	6.81		9.14	3.36	0.454	3.75	12.6	3.33	10.7	14.3	5.74	1.71		0.598
O=C(O)c1c[nH]c2c(OCc3ccccc3)c3ccccc3c(O)c2c1=O	5.19	31.4	> 100	> 100	58.8	30.7	36.9	> 100		35.8	9.04	2.43	17.5	20	43.6	21.7	16.4	15.6	18.7	
CCOC(=O)NC(=O)c1cn(CCCOC(=O)NCCCCCCNC(=O)OCCCn2cc(C(=O)NC(=O)OCC)c(=O)[nH]c2=O)c(=O)[nH]c1=O	33.6	> 100		29.6	> 100	> 100	90.3	> 100		39.2										
CC1=NC(C(C)C)C(=O)O1 (stereo not drawn)	> 100	> 100	> 100	> 100	> 100		> 100	> 100	> 100	56										
CC(=O)c1ccc(NC(=O)C(=O)C(C(=O)c2ccc(Cl)c(Cl)c2)C2OC(=O)c3ccccc32)cc1 (stereo not drawn)	23	45.3	> 100	> 100	67.7	58.2	> 100	65.5	24.9											
C=C(C)[C@@H]1CC[C@]2(C(=O)O)CC[C@]3(C)[C@H](CC[C@@H]4[C@@]5(C)C/C(=C/c6ccc(OC)cc6)C(=O)C(C)(C)[C@@H]5CC[C@]43C)[C@@H]12	5.68	7.51	4.42	11.2	10.2	4.56	> 100	7.3	4.29			1.86	2.24	1.45	2.5	3.09	1.3	2.97	2.15	1.84
O=C(NC1CCCCC1)NS(=O)(=O)c1ccc(-n2nc3c(c2-c2ccc(Cl)cc2)Cc2ccccc2-3)cc1	29.7	> 100	8.67	> 100	> 100	34.6	7.28	35.8		5.43	2.11	11.7	35.8	3.64	28.8	34.8	16.6	2.77	18.6	
Oc1ccc(-c2cn3cc(Cl)sc3n2)cc1	> 100	> 100	> 100		78.8	> 100	34.3	> 100		40.7	16.5	> 100	> 100	> 100		24.2	30.8	16.5	67.7	
Nc1ccc(-c2nc3ccccc3o2)cc1S	22.7	27.7	50.6	26		41.5	> 100	> 100		32	12.4	10.8	14.5	19.5	7.58		14.3	7.77	19.7	
COC1=CC(c2ccc[nH]2)=N/C1=C\c1[nH]c(C)c(C(C)=O)c1C	> 57.2	> 42.2	0.641	> 100	> 100	> 44.8	> 100	> 100		2.69	0.329	1.19	0.69	0.226	3.51	0.088	2.02	0.032	0.696	
COc1ccc(-c2nc(N3CCOCC3)c3sc(CN(C)c4ncc(C(=O)NO)cn4)cc3n2)cn1		0.123	0.0705	1.82	0.0331	0.0625		0.0439	0.0352		< 0.01		< 0.0106	< 0.01	0.0147	< 0.01	< 0.01		< 0.01	< 0.01
